Results taken from publication PMC7617456, “Cryptosporidium lysyl-tRNA synthetase inhibitors define the interplay between solubility and permeability required to achieve efficacy” (Science translational medicine, 2024).
≈ marks a conversion by molar mass, not a printed value. Where two headings read alike, the source gives them in different places.

Legend:
[1] = Aqueous (kinetic) solubility by UHPLC; assay type: physicochemical; conditions: 25 °C, aqueous buffer, kinetic from dmso stock, PBS pH 7.4, UHPLC
Procedure: As previously described.(27) […]
samples were prepared by adding 5 µL stock to PBS pH 7.4 (195 µL). This solution was mixed […]
The solubility test samples were […]
vacuum ﬁ ltered (Millipore Multiscreen HTS ﬁ lter, 96-well format) to remove any undissolved […]
material. The ﬁ ltrate was analyzed for dissolved drug compound using a truncated UHPLC […]
methodology. A calibration solution was prepared for each test compound. The 10 mM stock […]
solution was diluted in DMSO to give a 500 µM solution. This was further diluted with 50:50 […]
acetonitrile:water to give a 50 µM solution. Aliquots (0.2, 2.0, and 5.0 µL) of this 50 µM solution were injected onto the UHPLC system, and the areas of the resultant peaks were […]
integrated to produce a calibration line. Aliquots of the test sample ﬁ ltrate (0.4 and 5.0 µL) […]
were injected onto the UHPLC system and the resultant test compound peak areas quantiﬁ ed […]
using the calibration line. […]

[2] = Calf tolerability study; assay type: in vivo; conditions: 15 mg/kg twice daily oral 7 days
Procedure: Calf efficacy and tolerability study
Calf tolerability study (Moredun Scientific)
A tolerability study was conducted on uninfected calves prior to efficacy studies to confirm palatability and tolerance. Starting at day 2 post birth (“Day 1”), DDD489 or DDD508 were administered to four male calves per treatment group. The test compound was dosed at 15 mg/kg (maximum volume of 20 ml per occasion; prepared in vehicle: 0.5% HPMC, 0.4% Tween 80, 0.5% Benzyl alcohol in sterile water) for a total of 7 days. Administration was by oral gavage twice daily immediately prior to milk feeds, and at least 8 hours apart (± 30 minutes). Body weight was measured on day 0 and day 7, and clinical observations were recorded twice a day during dosing. Blood samples were collected from all animals prior to the morning treatment on Day 1, then 5 (± 2) minutes, 15 (± 2) minutes, 30 (± 5) minutes, 1, 2, 4, 8 and 24 hours (± 10 minutes) post first daily dose. This sample schedule was repeated on Day 7 for the same animals. Blood samples were processed to plasma. […]

[3] = NOD SCID Gamma mice at MED 30 mg/kg, first and last days of treatment
From the text: Figure S6. Blood concentration time profiles for late lead compounds in infected mice.
Mean free blood concentration time profiles following oral administration of late lead compounds to NOD SCID Gamma (A a n d B ) and IFN-Gamma KO (C and D) mice twice daily for 7 days as described in Fig. 1C and Fig. 4A) respectively. Data are mean ± SD (3 mice per group). Blood samples were collected on the first day (squares) and last day (circles) of compound dosing (Day 7 and 13 PI for NOD SCID Gamma, Day 6 and 13 for IFN-Gamma KO). Total drug concentrations were corrected for fraction unbound (fu) in PPB assay […]
mg/kg) was administered to NOD SCID Gamma mice. (B) DDD508 (10 mg/kg) was administered to NOD SCID Gamma mice. Blood concentrations were scaled to 30 mg/kg for comparison, assuming dose linearity. (C) DDD489 (50 mg/kg) was administered to IFN-Gamma KO mice. (D) DDD508 (50 mg/kg) was administered to IFN-Gamma KO mice.
(1 picture or pasted object on this page, not shown here)

[4] = tested on: KRS-A309L; test: Transgenic C. parvum NanoLuciferase drug sensitivity assay, KRS-A309L; assay type: cell-based; conditions: Cryptosporidium parvum, HCT-8, 48 h, read-out: EC50, KRS-A309L
[5] = FaSSIF solubility; assay type: physicochemical; conditions: Fasted State Simulated Intestinal Fluid
[6] = tested on: P-gp (MDR1); test: in vitro; conditions: dog, MDCK-MDR1
[7] = CHIlogD; assay type: physicochemical; conditions: pH 7.4
[8] = Liver microsomal intrinsic clearance, mouse; assay type: in vitro ADME; conditions: mouse liver microsomes
[9] = Hepatocyte intrinsic clearance, mouse; assay type: in vitro ADME; conditions: mouse hepatocytes
[10] = Hepatocyte intrinsic clearance, rat; assay type: in vitro ADME; conditions: rat hepatocytes
[11] = Hepatocyte intrinsic clearance, dog; assay type: in vitro ADME; conditions: dog hepatocytes
[12] = Plasma protein binding, mouse; assay type: in vitro ADME; conditions: mouse PPB assay, read-out: fraction unbound (fu)
[13] = Plasma protein binding, dog; assay type: in vitro ADME; conditions: read-out: PPB (d) (converted)
[14] = Plasma protein binding, bovine; assay type: in vitro ADME; conditions: calf plasma, PPB assay, read-out: fraction unbound (fu)
[15] = molecular target: T1, hERG potassium channels (Homo sapiens, UniProt Q12809); test: hERG inhibition, manual patch-clamp; assay type: cell-based; conditions: CHO cells
T1 construct: host or cells: Chinese Hamster Ovary (CHO) cells
T1 sequence (Q12809 whole entry): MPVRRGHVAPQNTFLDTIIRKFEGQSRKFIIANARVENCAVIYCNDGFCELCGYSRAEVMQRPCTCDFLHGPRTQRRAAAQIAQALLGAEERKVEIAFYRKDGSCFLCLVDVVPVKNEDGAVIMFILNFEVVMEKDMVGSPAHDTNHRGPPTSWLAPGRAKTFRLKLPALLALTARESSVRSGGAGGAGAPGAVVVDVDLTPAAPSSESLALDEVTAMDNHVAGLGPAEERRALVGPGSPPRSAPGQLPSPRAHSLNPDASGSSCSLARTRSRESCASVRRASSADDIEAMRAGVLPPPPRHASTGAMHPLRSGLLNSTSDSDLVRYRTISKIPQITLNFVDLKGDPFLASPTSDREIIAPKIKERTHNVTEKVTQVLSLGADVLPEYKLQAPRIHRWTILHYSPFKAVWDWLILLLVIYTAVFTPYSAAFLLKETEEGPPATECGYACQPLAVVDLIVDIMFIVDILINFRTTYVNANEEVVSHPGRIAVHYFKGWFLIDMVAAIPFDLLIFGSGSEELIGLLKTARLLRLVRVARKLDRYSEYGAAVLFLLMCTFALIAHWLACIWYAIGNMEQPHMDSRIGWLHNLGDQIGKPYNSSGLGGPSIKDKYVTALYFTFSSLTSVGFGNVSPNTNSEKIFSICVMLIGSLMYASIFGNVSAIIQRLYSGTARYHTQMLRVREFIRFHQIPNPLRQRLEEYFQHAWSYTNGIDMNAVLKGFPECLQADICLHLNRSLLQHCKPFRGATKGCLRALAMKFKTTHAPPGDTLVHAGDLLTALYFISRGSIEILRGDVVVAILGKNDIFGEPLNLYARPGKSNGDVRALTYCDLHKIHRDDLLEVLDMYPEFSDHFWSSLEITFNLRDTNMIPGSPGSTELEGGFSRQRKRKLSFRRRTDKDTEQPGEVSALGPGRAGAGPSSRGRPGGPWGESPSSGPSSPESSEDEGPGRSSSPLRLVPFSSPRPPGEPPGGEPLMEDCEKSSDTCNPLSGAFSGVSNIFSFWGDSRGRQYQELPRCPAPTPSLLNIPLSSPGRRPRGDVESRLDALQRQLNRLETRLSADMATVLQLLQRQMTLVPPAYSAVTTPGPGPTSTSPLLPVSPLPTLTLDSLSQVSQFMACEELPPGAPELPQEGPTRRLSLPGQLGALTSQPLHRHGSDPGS
Procedure: hERG inhibition (WuXi App Tec)
DDD489 and DDD508 were evaluated for their effects on cloned hERG potassium channels stably expressed in Chinese Hamster Ovary (CHO) cells using manual patch-clamp technique in a hERG inhibition assay conducted at WuXi App Tec (Suzhou). […]

[16] = tested on: mitochondrial function; test: Functional mitochondrial toxicity assay (Seahorse XFe96); assay type: cell-based
[17] = read-out: Oxygen consumption AC50

In the case of `Nc1nc2c(c(C(F)(F)F)n1)C(=O)N(CC1CCCC(C(F)(F)F)C1)C2` (stereo not drawn) [DDD489], the solubility at 24 h [1] is reported as 21 µM (≈ 8.03 µg/mL), the “tolerability in uninfected calves” value [2] is reported as “well tolerated” and the “free blood concentration relative to EC90” value [3] is reported as “only above the EC90 for around two hours”. For the same compound, the EC50 [4] was 8.63 µM, the solubility [5] was 48 µM (≈ 18.4 µg/mL) and the efflux ratio [6] was 1.3. The chromatographic logD [7] was 2.8, the “Mics CLi (m)” value [8] was 12 mL/min/g and the “Heps CLi (m)” value [9] was 10 mL/min/g. The “Heps CLi (r)” value [10] was 1.9 mL/min/g, the “Heps CLi (d)” value [11] was 1.8 mL/min/g and the fraction unbound [12] was 0.16. For the same compound, the fraction unbound [13] was 0.3, the fraction unbound [14] was 0.26 and the IC50 [15] was > 30 µM. For the same compound, the “Extracellular acidification rate AC50” value [16] was “No response”, the “Reserve capacity AC50” value [16] was “No response” and the AC50 [16, 17] was > 100 µM.
For `O=C(NCC1(O)CCCCC1)c1cc(=O)c2cc(O)ccc2o1` [DDD508], the solubility at 24 h [1] was 184 µM (≈ 58.4 µg/mL), the “tolerability in uninfected calves” value [2] was “well tolerated” and the “free blood concentration relative to EC90” value [3] was “only above the EC90 for around two hours”. For the same compound, the EC50 [4] was 9.93 µM, the solubility [5] was 325 µM (≈ 103 µg/mL) and the efflux ratio [6] was 9.5. The chromatographic logD [7] was 1, the “Mics CLi (m)” value [8] was 1.4 mL/min/g and the “Heps CLi (m)” value [9] was 3.7 mL/min/g. The “Heps CLi (r)” value [10] was 1.1 mL/min/g, the “Heps CLi (d)” value [11] was 1.2 mL/min/g and the fraction unbound [12] was 0.6. For the same compound, the fraction unbound [13] was 0.52, the fraction unbound [14] was 0.53 and the IC50 [15] was > 30 µM. The “Extracellular acidification rate AC50” value [16] was “No response”, the AC50 [16, 17] was > 100 µM and the AC50 ([16]; read-out: Reserve capacity AC50) was > 100 µM.
